One may read the IC50 as the concentration needed to halve the response being measured. Higher therefore signals weaker potency.

Where two headings read alike, the source gives them in different places. Bounds are passed on as bounds.

For one experiment, the target named is T1, Dopamine D2 (Rattus norvegicus, UniProt P61169).
T1 construct: The corpus striatum was crudely dissected and frozen on dry ice; from tissue; host or cells: rat corpus striatum membranes (male Sprague-Dawley rats, Charles River)
Put plainly: Dopamine D2 Binding Assay ([3H]Spiperone, corpus striatum membranes). The following applies: [3H]Spiperone 0.1 nM, 37° C., 15 min. More on the design: species or system male Sprague-Dawley rats. On the procedure:
Activity at D2 sites is measured using the screening process set out in Example 67.
Dopamine D2 Binding Assay
Dopamine D2 affinity was determined according to the procedures of Burt, Creese and Snyder [Molecular Pharmacology 12,800 (1976); Science 196, 326 (1977); Science 192, 481 (1976)]. Briefly, male Sprague-Dawley rats (Charles River) were decapitated, brains rapidly removed and chilled in ice-cold 50 mM Hepes/KOH buffer (pH 7.4, 20° C.). The corpus striatum was crudely dissected and frozen on dry ice. Tissue was pooled and stored at -80° C. until use. On the day of assay, tissue was thawed in 20 ml ice-cold Hepes/KOH buffer, and homogenized with a polytron for 15 sec at 18,000 rpm. The homogenate was centrifuged (39,000×g, 10 min, at 4° C.). The supernatant was discarded and the pellet rehomogenized in ice-cold Hepes/KOH buffer and recentrifuged as described previously. The supernatant was again discarded and the pellet resuspended (1:100) in ice-cold Hepes/KOH buffer (pH 7.4, 20° C., containing 120 mM NaCl, 5 mM KCl, 1 mM MgCl2, 0.1% (w/v) ascorbic acid, and 10 μM pargylline, and stored on ice until assay. The binding assay (1 ml total volume) was performed in duplicate and initiated by the addition of 800 μl membrane homogenate to tubes containing 100 μl [^3 H]Spiperone (0.1 nM final concentration), and 100 μl competitor, buffer, or butaclamol, which was used to define the non-specific binding. The assay was incubated at 37° C. for 15 min, afterwhich the assay was terminated by rapid filtration.
In vitro IC50 test values for binding to the D2 receptor were determined for representative compounds of Formula I by the method of Burt, Creese, and Snyder, Molecular Pharmacology 12, 800 (1976); Creese, Burt, and Snyder, Science 196, 326 (1977); and Creese, Burt and Snyder, Science 192, 481 (1976). Test IC50 values greater than 1,000 nM are considered to reflect inactivity at the D2 receptor, indicating the risk of extrapyramidal side effects is small.

A further experiment deals with brain ischemia. Put plainly: Anoxic Nitrogen Test in Rats. The class given is in vivo, male Sprague-Dawley rats. To be noted: Rattus norvegicus, sc, subcutaneously, 2 hr survival, read-out: Nitrogen Anoxia % Survival. An excerpt:
Most specifically, administration of the compounds of Formula I results in protection against hypoxia-induced death in an anoxic nitrogen test in rats (Example 66). The test identifies the neuro-protective effects of substances against lethal brain damages produced by a lack of oxygen consumption (anoxia). In this test procedure, control animals exposed for one minute to a pure nitrogen atmosphere will expire because of respiratory failure caused by irreversible damage to the brain respiratory center.
Anoxic Nitrogen Test in Rats
The animals utilized are male Sprague-Dawley rats (200-400 grams) housed four animals per cage in a normal controlled environment with unlimited access to food and water. Usually there are 8 animals per dose, however, […] can be employed to obtain an initial impression of a compound's activity. Animals are parenterally or orally administered the vehicle or test compound 30 minutes before the anoxic insult. The anoxic episode consists of placing up to 8 animals in the sealed test chamber (10" l×10" w×6" h) continuously flushed with pure N2 (4.5 grade) at a flow rate of 5 SCFM for 1 min. Animals are then promptly removed to normal atmosphere and observed for the 2 hour period. Typically, animals become disoriented within 15 sec after which they remain motionless.
Even though the heart is still beating after the N2 exposure, all control animals fail to gasp when removed from the chamber and usually expire within 3 minutes. Drug treated animals, however, still gasp or start gasping after being removed, which is a good indication that the animals will survive the N2 exposure [see Wauquire, A., et al: Arch. Int. Pharmacodyn., 249, 330-334 (1981); Wauquier, A., et al: Drug Dev. Res., 8, 373-380 (1986)]. Results are recorded as:
(Number of animals surviving (2 hr))/(Number of animals tested)×100%
The anoxic nitrogen test is an in vivo model of brain ischemia in rats [see: Wauquire, A., et al: Arch. Int. Pharmacodyn., 249, 330-334 (1981); Wauquier, A., et al: Drug Dev. Res., 8, 373-380 (1986)]. Compounds of the present invention are active in this in vivo model of brain ischemia when given subcutaneously in the doses indicated in Table 2, thus providing additional evidence that the present compounds will be useful in the treatment of brain ischemia.

For another experiment, the target named is T2, sigma receptor (Cavia porcellus, UniProt Q60492).
T2 construct: from tissue
Put plainly: Sigma binding (method of Tam and Cook). On the procedure:
In vitro IC50 test values for binding to the sigma receptor were determined for representative compounds of Formula I by the method of Tam and Cook [see: Tam, S. W., and Cook, L: Proc. Natl. Acad. Sci. USA 81, 5618-5621 (1984)] with only minor modifications. Test IC50 values lower than 100 nM are considered to reflect activity at the sigma receptor.

T1 sequence (P61169 whole entry): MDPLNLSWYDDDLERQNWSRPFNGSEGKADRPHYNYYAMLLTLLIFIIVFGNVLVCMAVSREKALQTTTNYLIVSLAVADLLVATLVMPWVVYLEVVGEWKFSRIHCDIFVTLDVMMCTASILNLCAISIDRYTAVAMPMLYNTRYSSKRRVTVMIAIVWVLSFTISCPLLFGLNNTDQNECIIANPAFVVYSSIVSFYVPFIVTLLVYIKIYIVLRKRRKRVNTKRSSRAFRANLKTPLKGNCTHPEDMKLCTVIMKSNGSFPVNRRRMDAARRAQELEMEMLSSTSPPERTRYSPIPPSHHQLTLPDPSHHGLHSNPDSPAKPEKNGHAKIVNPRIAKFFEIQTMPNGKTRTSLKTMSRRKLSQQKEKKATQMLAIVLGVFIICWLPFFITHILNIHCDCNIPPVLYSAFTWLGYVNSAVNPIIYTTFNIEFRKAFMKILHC
T2 sequence (Q60492 whole entry): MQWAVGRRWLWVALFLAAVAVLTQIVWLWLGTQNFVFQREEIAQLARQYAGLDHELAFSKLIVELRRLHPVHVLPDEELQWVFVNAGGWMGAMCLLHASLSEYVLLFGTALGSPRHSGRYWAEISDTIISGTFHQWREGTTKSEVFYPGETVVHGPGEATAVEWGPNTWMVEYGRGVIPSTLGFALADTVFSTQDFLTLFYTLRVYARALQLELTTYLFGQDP

On Dopamine D2, `Fc1ccc(C2=CCC(N3CCN(Cc4ccccc4)CC3)CC2)c2ccccc12` (stereo not drawn) [Example 36, 1-[4-(4-Fluoro-1-naphthalenyl)-3-cyclohexen-1-yl]-4-(phenylmethyl)piperazin] returned an IC50 of 1000 to 10000 nM. In the experiment on brain ischemia (50 mg/kg), the responders at 50 mg/kg amounted to 100%.
Regarding `Fc1ccc([C@H]2CC[C@H](N3CCN(Cc4ccccc4)CC3)CC2)cc1` [Example 63, Trans 1-[4-(4-fluorophenyl)-1-cyclohexyl]-4-(phenylmethyl)piperazine], the IC50 on Dopamine D2 is 1000 to 10000 nM; on sigma receptor, 0.7 nM. Besides, in the experiment with brain ischemia (20 & 40 mg/kg), the responders at 20 mg/kg was 75%.
On to `Clc1ccccc1CN1CCN(C2CC=C(c3ccc4c(c3)OCO4)CC2)CC1` (stereo not drawn) [Example 57, 1-[4-(1,3-Benzodioxol-5-yl)-3-cyclohexen-1-yl]-4-[(2-chlorophenyl)methyl]piperazine], for which the IC50 at Dopamine D2 fell in the range of 1000 to 10000 nM. Also, the responders at 10 mg/kg in the experiment on brain ischemia (10 mg/kg) stood at 25%.
On to `Fc1ccc2[nH]cc(C3=CCC(N4CCN(Cc5ccccc5)CC4)CC3)c2c1` (stereo not drawn) [Example 49, 5-Fluoro-3-{4-[4-(phenylmethyl)-1-piperazinyl]-1-cyclohexen-1-yl]-1H-indole], for which the values for the IC50 at Dopamine D2 and at sigma receptor were 1000 to 10000 nM and 8.6 nM, respectively. The responders at 10 mg/kg with brain ischemia (10 & 60 mg/kg) amounted to 92%.
Consider `Fc1ccc(C2=CCC(N3CCN(Cc4ccccc4)CC3)CC2)cc1` (stereo not drawn) [Example 35, 1-[4-(4-Fluorophenyl)-3-cyclohexen-1-yl]-4-(phenylmethyl)-piperazine], for which the figures for the IC50 at Dopamine D2 and at sigma receptor were 50000 to 100000 nM and 1.9 nM, respectively. In addition, in the experiment with brain ischemia (15 & 20 mg/kg), the responders at 15 mg/kg came out at 100%.
With `Fc1ccc(F)c(CC2CCN(C3CC=C(c4ccc5c(c4)OCO5)CC3)CC2)c1` (stereo not drawn) [Example 54, 1-[4-(1,3-Benzodioxol-5-yl)-3-cyclohexen-1-yl]-4-[(2,5-difluorophenyl)methyl]piperidine], the IC50 is 1000 to 10000 nM on Dopamine D2 and 3.6 nM at sigma receptor. The responders at 10 mg/kg with brain ischemia (10 mg/kg) turned out to be 38%.
`Clc1ccc2[nH]cc(C3=CCC(N4CCN(Cc5ccccc5)CC4)CC3)c2c1` (stereo not drawn) [Example 50, 5-Chloro-3-{4-[4-(phenylmethyl)-1-piperazinyl]-1-cyclohexen-1-yl]-1H-indole]: the IC50 at Dopamine D2 was 10000 to 50000 nM; at sigma receptor, 31.4 nM. For the same molecule, in the experiment with brain ischemia (20 mg/kg), the responders at 20 mg/kg was 100%.
As for `Fc1ccc(F)c(CN2CCN(C3CC=C(c4ccc5c(c4)OCO5)CC3)CC2)c1` (stereo not drawn) [Example 58, 1-[4-(1,3-Benzodioxol-5-yl)-3-cyclohexen-1-yl]-4-[(2,5-difluorophenyl)methyl]piperazine], the IC50 at Dopamine D2 lay in the range of 1000 to 10000 nM. The responders at 10 mg/kg in the experiment with brain ischemia (10 mg/kg) was 62%.
`Ic1ccc(I)c(CN2CCN(C3CC=C(c4ccc5c(c4)OCO5)CC3)CC2)c1` (stereo not drawn) [Example 61, 1-[4-(1,3-Benzodioxol-5-yl)-3-cyclohexen-1-yl]-4-[(2,5-diiodophenyl)methyl]piperazine]: the IC50 on Dopamine D2 is above 100000 nM.
`C1=C(c2ccc3c(c2)OCCO3)CCC(N2CCN(Cc3ccccc3)CC2)C1` (stereo not drawn) [Example 56, 1-[4-(1,4-Benzodioxan-6-yl)-3-cyclohexen-1-yl]-4-(phenylmethyl)piperazine]: the responders at 10 mg/kg in the experiment with brain ischemia (10 mg/kg) came to 100%.
For `C1=C(Cc2ccccc2)CCC(N2CCN(Cc3ccccc3)CC2)C1` (stereo not drawn) [Example 43, 1-(Phenylmethyl)-4-[4-(phenylmethyl)-3-cyclohexen-1-yl]piperazine], the IC50 was 1000 to 10000 nM at Dopamine D2 and 2.1 nM at sigma receptor. Also, the responders at 5 mg/kg in the experiment on brain ischemia (5 mg/kg) is 75%.
In the case of `Fc1ccc(F)c(CC2CCN(C3CC=C(c4ccc(F)c(F)c4)CC3)CC2)c1` (stereo not drawn) [Example 55, 1-[4-(3,4-Difluorophenyl)-3-cyclohexen-1-yl]-4-[(2,5-difluorophenyl)methyl]piperidine], the IC50 on Dopamine D2 fell in the range of 1000 to 10000 nM.
Turning to `C1=C(c2ccc3c(c2)OCO3)CCC(N2CCN(Cc3ccccc3)CC2)C1` (stereo not drawn) [Example 37, 1-[4-(1,3-Benzodioxol-5-yl)-3-cyclohexen-1-yl]-4-(phenylmnethyl) piperazine], the IC50 at Dopamine D2 was 10000 to 50000 nM; on sigma receptor, 1.9 nM. Also, in the experiment on brain ischemia, the responders at 40 mg/kg came to 92%.
With `Fc1ccc([C@H]2CC[C@@H](N3CCN(Cc4ccccc4)CC3)CC2)c2ccccc12` [Example 62-cis, Cis and trans 1-[4-(4-fluoro-1-naphthalenyl)-1-cyclohexyl]-4-(phenylmethyl)piperazine], the values for the IC50 at Dopamine D2 and at sigma receptor were above 100000 nM and 6.9 nM, respectively. Also, the responders at 40 mg/kg in the experiment on brain ischemia was 63%.
Take `COc1cccc(CN2CCN([C@H]3CC[C@H](c4ccc(F)cc4)CC3)CC2)c1` [Example 65, Trans 1-[4-(4-fluorophenyl)-1-cyclohexyl]-4-[(3-methoxyphenyl)methyl]piperazine]: the IC50 on Dopamine D2 is 1000 to 10000 nM; at sigma receptor, 3.2 nM. The responders at 10 mg/kg with brain ischemia (10 mg/kg) worked out at 62%.
As to `COc1cccc(CN2CCN(C3CC=C(c4ccc5c(c4)OCO5)CC3)CC2)c1` (stereo not drawn) [Example 59, 1-[4-(1,3-Benzodioxol-5-yl)-3-cyclohexen-1-yl]-4-[(3-methoxyphenyl)methyl]piperazine], the IC50 on Dopamine D2 lay in the range of 1000 to 10000 nM. In addition, the responders at 10 mg/kg in the experiment on brain ischemia (10 mg/kg) is 75%.
In the case of `Fc1ccc(C2=CCC(N3CCN(Cc4ccc5ccccc5n4)CC3)CC2)cc1` (stereo not drawn) [Example 45, 2{{4-[4-(4-Fluorophenyl)-3-cyclohexen-1-yl]-1-piperazinyl]methyl]quinoline], on Dopamine D2, the IC50 was 1000 to 10000 nM. For the same molecule, the responders at 20 mg/kg with brain ischemia (20 mg/kg) was found to be 83%.
For `Fc1ccc(C2=CCC(N3CCN(Cc4cccs4)CC3)CC2)cc1` (stereo not drawn) [Example 44, 1-[4-(4-Fluorophenyl)-3-cyclohexen-1-yl]-4-(2-thienylmethyl)piperazine], the IC50 at Dopamine D2 is 1000 to 10000 nM. For the same molecule, the responders at 40 mg/kg in the experiment on brain ischemia turned out to be 100%.
Consider `Fc1ccc([C@H]2CC[C@H](N3CCN(Cc4ccc5ccccc5n4)CC3)CC2)cc1` [Example 64, Trans 2-{{4-[4-(4-fluorophenyl)-1-cyclohexyl]-1-piperazinyl}methyl]quinoline], for which the IC50 at Dopamine D2 was in the range of 1000 to 10000 nM. Also, in the experiment on brain ischemia (5 & 20 mg/kg), the responders at 5 mg/kg came out at 83%.
Molecule `Fc1ccccc1CC1CCN(C2CC=C(c3ccc4c(c3)OCO4)CC2)CC1` (stereo not drawn) [Example 53, 1-[4-(1,3-Benzodioxol-5-yl)-3-cyclohexen-1-yl]-4-[(2-fluorophenyl)methyl]piperidine] displayed an IC50 at Dopamine D2 of 1000 to 10000 nM.

The values are drawn from patent US6153611A, “Piperazinyl-cyclohexanes and cyclohexenes” (Bristol-Myers Squibb Company, priority 1993, dated 2000).
